From patent US20230100838A1 (Revolution Medicines, Inc., priority 2019, published 2023)

Legend:
Format in all cases: binding
[1] = target: T1, GDP-loaded K-Ras (1-169) G12D, C51S, C80L, C118S (Homo sapiens, UniProt P01116, C118S/C51S/C80L/G12D); test: K-Ras G12D(GDP) cross-linking assay (conjugate formation, TOF mass spectrometry); set-up: key: 0: No observed x-linking; +: 0 < x ≤ 20; ++: 20 < x ≤ 40; +++: 40 < x ≤ 100; conditions: percent covalently modified K-Ras by MS, room temperature, typical compound conc. 2, 10, 25 μM, endpoints 1 and 24 h
T1 construct: GDP-loaded K-Ras (1-169) G12D, C51S, C80L, C118S
In short: (§1)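 5 μM protein (final, from 50 μM) in HEPES/NaCl/MgCl2 buffer pH 7.4 with compound typically at 2, 10 and 25 μM, room temperature, 1 and 24 h endpoints; formic acid quench. Intact-protein LC–TOF MS; percent modification is covalent adduct peak height over total K-Ras peak height.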

[2] = target: K-Ras G12S (Homo sapiens, UniProt P01116, G12S); test: K-Ras G12S cross-linking assay (comparable procedure, conjugate formation, TOF mass spectrometry); set-up: key: 0: No observed x-linking
Experimental: Protocol: K-Ras G12D(GDP) Cross-Linking Assay
Note: while the following protocol outlines the procedure for K-Ras G12D(GDP), a person of skill in the art may substitute other Ras proteins, and may also substitute a non-hydrolyzable GTP analog for GDP to study GTP bound Ras protein.
GDP-loaded K-Ras (1-169) G12D, C51S, C80L, C118S and GDP-loaded K-Ras (1-169) C51S, C80L, C118S were adjusted to 50 μM in K-Ras assay buffer (12.5 mM HEPES, 75 mM NaCl and 1 mM MgCl2 at pH 7.4). A 5 μL aliquot of each protein solution was added to each well of a 96-well microplate containing 40 μL of assay buffer. Initial compound stocks were prepared in DMSO at 100 times their final assay concentration. Compounds were then diluted 10-fold into K-Ras assay buffer to 10 times their final concentration. A 5 μL aliquot of each diluted compound solution was added to each protein solution in the 96-well microplate to initiate the reaction, which then proceeded at room temperature. Typical final compound concentrations were 2, 10, and 25 μM. At each time point, the reactions were analyzed immediately or quenched with 5 μL of a 5% formic acid solution and kept at 4° C. until analysis. Typical assay endpoints were 1 and 24 h.
Data collection took place on an Agilent 6230 TOF Mass Spectrometer. Complete reactions were injected onto a C4 reverse-phase column to separate protein from buffer components prior to entering the mass spectrometer. The proteins were eluted from the column by increasing acetonitrile fraction in the mobile phase and fed directly into the mass analyzer. Initial analysis of raw data took place in Agilent MassHunter BioConfirm software and consisted of deconvolution of multiple protein charge states with the maximum entropy algorithm, with a mass step of 1 Da. The heights of all deconvoluted protein masses were exported for further data analysis. The percent modification of each protein was then determined by calculating the peak height of the covalently modified K-Ras species as a percentage of the sum total of K-Ras protein peak height.

[3] = target: T2, GDP-loaded K-Ras (1-169) C51S, C80L, C118S (Homo sapiens, UniProt P01116, C118S/C51S/C80L); test: K-Ras WT (GDP) cross-linking assay (conjugate formation, TOF mass spectrometry); set-up: key: 0: No observed x-linking; +: 0 < x ≤ 20; ++: 20 < x ≤ 40; +++: 40 < x ≤ 100; conditions: percent covalently modified K-Ras by MS, room temperature, typical compound conc. 2, 10, 25 μM, endpoints 1 and 24 h
T2 construct: GDP-loaded K-Ras (1-169) C51S, C80L, C118S
In short: as §1

[4] = Table 5, percent covalently modified K-Ras by MS
[5] = Table 4, percent covalently modified K-Ras by MS

SMILES	G12D x-linking (%) ([1]; Table 5)	G12S x-linking (%) [2, 4]	WT x-linking (%) ([3]; Table 5)	G12D x-linking (%) ([1]; Table 4)	G12S x-linking (%) [2, 5]	WT x-linking (%) ([3]; Table 4)
CSCCCN=C=NC1CCN(c2nc(OC[C@@H]3CCCN3C)nc3c2CCN(c2cccc4cccc(C)c24)C3)CC1 [Example 93, N-(1-(7-(8-methylnaphthalen-1-yl)-2-(((S)-1-methylpyrrolidin-2-yl)methoxy)-5,6,7,8-tetrahydropyrido[3,4-d]pyrimidin-4-yl)piperidin-4-yl)-N-(3-(methylthio)propyl)methanediimine]	++ (20 < x ≤ 40)	+ (0 < x ≤ 10)	+ (0 < x ≤ 20)			
Cc1cccc2cccc(N3CCc4c(nc(OC[C@@H]5CCCN5C)nc4N4CCC(N=C=NC5CCN(C)CC5)CC4)C3)c12 [Example 83, N-(1-(7-(8-methylnaphthalen-1-yl)-2-(((S)-1-methylpyrrolidin-2-yl)methoxy)-5,6,7,8-tetrahydropyrido[3,4-d]pyrimidin-4-yl)piperidin-4-yl)-N-(1-methylpiperidin-4-yl)methanediimine]	+++ (40 < x ≤ 100)	++ (10 < x ≤ 100)	++ (20 < x ≤ 100)			
Fc1ccccc1-c1c(Cl)cc2c(N3CCN(C4=NCCO4)CC3)ncnc2c1F [Example 14, 2-(4-(6-chloro-8-fluoro-7-(2-fluorophenyl)quinazolin-4-yl)piperazin-1-yl)-4,5-dihydrooxazole]				+ (0 < x ≤ 20)	+ (0 < x ≤ 10)	+ (0 < x ≤ 20)
O=C(C1CCN(c2ncnc3c(F)c(-c4ccccc4F)c(Cl)cc23)CC1)C(F)(F)F [Example 18, 1-(1-(6-chloro-8-fluoro-7-(2-fluorophenyl)quinazolin-4-yl)piperidin-4-yl)-2,2,2-trifluoroethan-1-one]				0	0	0
Cc1cccc2cccc(N3CCc4c(nc(OC[C@@H]5CCCN5C)nc4N4CCC(N=C=NCc5ccccc5)CC4)C3)c12 [Example 24, N-benzyl-N-(1-(7-(8-methylnaphthalen-1-yl)-2-(((S)-1-methylpyrrolidin-2-yl)methoxy)-5,6,7,8-tetrahydropyrido[3,4-d]pyrimidin-4-yl)piperidin-4-yl)methanediimine]				+ (0 < x ≤ 20)	+ (0 < x ≤ 10)	+ (0 < x ≤ 20)
Cc1cccc2cccc(N3CCc4c(nc(OC[C@@H]5CCCN5C)nc4N4CCC(N=C=NCc5cccs5)CC4)C3)c12 [Example 94, N-(1-(7-(8-methylnaphthalen-1-yl)-2-(((S)-1-methylpyrrolidin-2-yl)methoxy)-5,6,7,8-tetrahydropyrido[3,4-d]pyrimidin-4-yl)piperidin-4-yl)-N-(thiophen-2-ylmethyl)methanediimine]	+ (0 < x ≤ 20)	+ (0 < x ≤ 10)	+ (0 < x ≤ 20)			
CCCN=C=NC1CCN(c2nc(OC[C@@H]3CCCN3C)nc3c2CCN(c2cccc4cccc(C)c24)C3)CC1 [Example 22, N-(1-(7-(8-methylnaphthalen-1-yl)-2-(((S)-1-methylpyrrolidin-2-yl)methoxy)-5,6,7,8-tetrahydropyrido[3,4-d]pyrimidin-4-yl)piperidin-4-yl)-N-propylmethanediimine]				+++ (40 < x ≤ 100)	++ (10 < x ≤ 100)	++ (20 < x ≤ 100)
